Experimental data taken from patent US20230257393A1, “MACROMOLECULE-SUPPORTED THIENOAZEPINE COMPOUNDS, AND USES THEREOF” (BOLT BIOTHERAPEUTICS, INC., priority 2020, published 2023).

The compounds below were run against T1, human TLR8 (Homo sapiens, UniProt Q9NR97) (assay: HEK Reporter Assay, HEK293 NFKB reporter cells expressing human TLR8). Settings: Table 1a, read-out: HEK293 hTLR8 EC50.
T1 construct: host or cells: HEK293 reporter cells
T1 sequence (Q9NR97 27-1041): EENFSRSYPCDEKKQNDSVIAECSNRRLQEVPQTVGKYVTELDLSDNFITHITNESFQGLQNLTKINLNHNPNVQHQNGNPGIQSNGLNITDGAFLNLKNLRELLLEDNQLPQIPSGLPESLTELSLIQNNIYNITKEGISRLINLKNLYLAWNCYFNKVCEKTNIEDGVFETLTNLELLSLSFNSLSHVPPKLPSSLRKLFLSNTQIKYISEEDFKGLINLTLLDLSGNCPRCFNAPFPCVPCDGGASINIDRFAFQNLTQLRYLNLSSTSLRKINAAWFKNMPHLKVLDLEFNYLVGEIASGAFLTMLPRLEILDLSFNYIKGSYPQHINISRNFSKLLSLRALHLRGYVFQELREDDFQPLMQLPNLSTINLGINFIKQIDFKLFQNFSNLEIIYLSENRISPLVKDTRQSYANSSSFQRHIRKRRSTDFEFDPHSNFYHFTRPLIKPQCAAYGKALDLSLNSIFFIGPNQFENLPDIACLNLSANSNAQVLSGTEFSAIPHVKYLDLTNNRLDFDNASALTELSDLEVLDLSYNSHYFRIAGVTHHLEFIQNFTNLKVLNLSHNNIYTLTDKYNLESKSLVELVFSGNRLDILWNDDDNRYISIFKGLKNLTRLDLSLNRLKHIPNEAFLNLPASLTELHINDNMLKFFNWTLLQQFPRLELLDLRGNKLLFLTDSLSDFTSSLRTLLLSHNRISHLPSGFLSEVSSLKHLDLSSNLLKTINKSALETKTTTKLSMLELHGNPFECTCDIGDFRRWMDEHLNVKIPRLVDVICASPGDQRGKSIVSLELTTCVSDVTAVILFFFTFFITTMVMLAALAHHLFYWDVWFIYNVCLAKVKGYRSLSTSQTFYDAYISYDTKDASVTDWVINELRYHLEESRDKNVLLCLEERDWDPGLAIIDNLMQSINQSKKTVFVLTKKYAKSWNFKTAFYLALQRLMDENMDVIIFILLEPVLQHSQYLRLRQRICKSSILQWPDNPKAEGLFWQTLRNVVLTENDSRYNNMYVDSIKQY
Assay type: cell-based
Method: (§1) Each compound was synthesized, purified, and characterized by mass spectrometry and shown to have the mass indicated. Additional experimental procedures are found in the Examples. Activity against HEK293 NFKB reporter cells expressing human TLR7 or human TLR8 was measured according to Example 202.
(§2) HEK293 reporter cells expressing human TLR7 or human TLR8 were purchased from Invivogen and vendor protocols were followed for cellular propagation and experimentation. Briefly, cells were grown to 80-85% confluence at 5% CO2 in DMEM supplemented with 10% FBS, Zeocin, and Blasticidin. Cells were then seeded in 96-well flat plates at 4×10^4 cells/well with substrate containing HEK detection medium and immunostimulatory molecules. Activity was measured using a plate reader at 620-655 nm wavelength.

EC50 [µM]	Compound
> 9	CCCN(CCC)C(=O)C1=Cc2sc(Br)cc2N=C(N)C1 [TAZ-1, 5-amino-2-bromo-N,N-dipropyl-6H-thieno[3,2-b]azepine-7-carboxamide]
> 9	CCCN(CC#CCNC(=O)OC(C)(C)C)C(=O)C1=Cc2sc(Br)cc2N=C(N)C1 [TAZ-10, tert-butyl N-[4-[(5-amino-2-bromo-6H-thieno[3,2-b]azepine-7-carbonyl)-propyl-amino]but-2-ynyl]carbamate]

Same assay, conditions: Table 1c, read-out: HEK293 hTLR8 EC50

Compound	EC50 [µM]
CCCN(C[C@H]1CC[C@@H](CNC(=O)OC(C)(C)C)CC1)C(=O)C1=Cc2sccc2N=C(N)C1 [TAZ-119]	≥ 9
CCCN(CCCNC(=O)C(C)(C)C)C(=O)C1=Cc2sc(CCCCCN)cc2N=C(N)C1 [TAZ-142]	≥ 9
CCCN(Cc1ccc(CN(C)C)cc1C(F)(F)F)C(=O)C1=Cc2sc(CCCCCNC(=O)OC(C)(C)C)cc2N=C(N)C1 [TAZ-143]	≥ 9
CCCN(CCCNC(=O)OC1CCC1)C(=O)C1=Cc2sc(CN3CCNCC3)cc2N=C(N)C1 [TAZ-169]	≥ 9
CCCN(CCCNC(=O)OC1CCC1)C(=O)C1=Cc2sc(CN3CCN(c4ccc(C(=O)OC)cc4)CC3)cc2N=C(N)C1 [TAZ-180]	≥ 9
CCCN(CCCNC(=O)OC1CCC1)C(=O)C1=Cc2sc(CC3CNC3)cc2N=C(N)C1 [TAZ-181]	≥ 9
CCCN(CCCNC(=O)OC1CCC1)C(=O)C1=Cc2sc(CC3CCNCC3)cc2N=C(N)C1 [TAZ-185, cyclobutyl N-[3-[[5-amino-2-(4-piperidylmethyl)-6H-thieno[3,2-b]azepine-7-carbonyl]-propyl-amino]propyl]carbamate]	≥ 9
CCCN(CCCNC(=O)OC1CCC1)C(=O)C1=Cc2sc(CCC3CNC3)cc2N=C(N)C1 [TAZ-197]	≥ 9
CCCN(CCCNC(=O)OC1CCC1)C(=O)C1=Cc2sc(CNC(=O)Cc3ccccc3)cc2N=C(N)C1 [TAZ-204]	2.25

The remaining lines, values ahead:

EC50 [µM]	Compound
≥ 9	CCCN(C(=O)C1=Cc2sc(CCCCCNC(=O)OC(C)(C)C)cc2N=C(N)C1)C1CC1 [TAZ-123]
≥ 9	CCCN(CC1CC1)C(=O)C1=Cc2sc(CCCCCNC(=O)OC(C)(C)C)cc2N=C(N)C1 [TAZ-125]
≥ 9	CCCN(CCCNC(=O)CC(C)(C)C)C(=O)C1=Cc2sc(CN3CCNCC3)cc2N=C(N)C1 [TAZ-139]
≥ 9	CCCN(OCC)C(=O)C1=Cc2sc(C#CC3CCN(C(=O)OC(C)(C)C)CC3)cc2N=C(N)C1 [TAZ-173]

The compounds below were run against T2, human TLR7 (Homo sapiens, UniProt Q9NYK1) (assay: HEK Reporter Assay, HEK293 NFKB reporter cells expressing human TLR7). Settings: Table 1a, read-out: HEK293 hTLR7 EC50.
T2 construct: host or cells: HEK293 reporter cells
T2 sequence (Q9NYK1 27-1049): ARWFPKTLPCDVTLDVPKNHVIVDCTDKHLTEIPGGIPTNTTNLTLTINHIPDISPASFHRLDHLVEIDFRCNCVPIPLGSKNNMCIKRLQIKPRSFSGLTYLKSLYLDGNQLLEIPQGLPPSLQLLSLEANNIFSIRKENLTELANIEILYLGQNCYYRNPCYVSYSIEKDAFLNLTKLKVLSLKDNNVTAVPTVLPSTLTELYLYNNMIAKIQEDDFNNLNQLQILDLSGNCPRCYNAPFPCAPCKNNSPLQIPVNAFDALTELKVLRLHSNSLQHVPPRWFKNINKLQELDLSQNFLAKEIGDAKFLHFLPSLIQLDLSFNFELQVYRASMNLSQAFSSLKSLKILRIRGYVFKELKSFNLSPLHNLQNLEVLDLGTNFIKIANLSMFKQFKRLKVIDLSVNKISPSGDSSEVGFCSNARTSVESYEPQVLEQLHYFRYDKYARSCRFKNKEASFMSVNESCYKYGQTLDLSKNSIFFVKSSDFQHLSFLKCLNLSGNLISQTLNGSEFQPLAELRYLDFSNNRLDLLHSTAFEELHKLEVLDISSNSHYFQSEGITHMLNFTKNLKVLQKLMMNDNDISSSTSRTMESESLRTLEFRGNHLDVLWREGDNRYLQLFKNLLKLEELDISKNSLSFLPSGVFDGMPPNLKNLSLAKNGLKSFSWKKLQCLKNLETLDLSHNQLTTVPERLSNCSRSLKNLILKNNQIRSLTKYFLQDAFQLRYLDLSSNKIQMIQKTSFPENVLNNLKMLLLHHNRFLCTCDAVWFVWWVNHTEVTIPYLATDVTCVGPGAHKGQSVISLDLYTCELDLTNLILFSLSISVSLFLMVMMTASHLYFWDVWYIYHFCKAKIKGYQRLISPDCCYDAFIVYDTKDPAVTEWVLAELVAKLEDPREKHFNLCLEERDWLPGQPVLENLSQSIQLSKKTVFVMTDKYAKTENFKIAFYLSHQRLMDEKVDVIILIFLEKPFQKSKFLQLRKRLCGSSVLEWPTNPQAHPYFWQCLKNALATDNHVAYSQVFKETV
Assay type: cell-based
Method: as §1, §2

EC50 [µM]	Compound
> 9	CCCN(CCC)C(=O)C1=Cc2sc(Br)cc2N=C(N)C1 [TAZ-1, 5-amino-2-bromo-N,N-dipropyl-6H-thieno[3,2-b]azepine-7-carboxamide]
> 9	CCCN(CCC)C(=O)C1=Cc2sccc2N=C(N)C1 [TAZ-2, 5-amino-N,N-dipropyl-6H-thieno[3,2-b]azepine-7-carboxamide]
> 9	CCCN(CCC)C(=O)C1=Cc2sc(CCCCCN)cc2N=C(N)C1 [TAZ-14, 5-amino-2-(5-aminopentyl)-N,N-dipropyl-6H-thieno [3,2-b]azepine-7-carboxamide]
> 9	CCCN(CC#CCNC(=O)OC(C)(C)C)C(=O)C1=Cc2sccc2N=C(N)C1 [TAZ-16, tert-butyl N-[4-[(5-amino-6H-thieno[3,2-b]azepine-7-carbonyl)-propyl-amino]but-2-ynyl]carbamate]
> 9	CCCN(CC#CCN)C(=O)C1=Cc2sccc2N=C(N)C1 [TAZ-17, 5-amino-N-(4-aminobut-2-ynyl)-N-propyl-6H-thieno[3,2-b]azepine-7-carboxamide]
> 9	CCCN(Cc1ccc(CN)cc1)C(=O)C1=Cc2sccc2N=C(N)C1 [TAZ-30, 5-amino-N-(4-(aminomethyl)benzyl)-N-propyl-6H-thieno[3,2-b]azepine-7-carboxamide]

Same assay, conditions: Table 1b, read-out: HEK293 hTLR7 EC50

EC50 [µM]	Compound
> 9	CCCN(Cc1ccc(CNC)cc1)C(=O)C1=Cc2sc(CCCCCN(C)C)cc2N=C(N)C1 [TAZ-65, 5-amino-2-[5-(dimethylamino)pentyl]-N-[[4-(methylaminomethyl)phenyl]methyl]-N-propyl-6H-thieno[3,2-b]azepine-7-carboxamide]
> 9	CCCN(C[C@H]1C[C@H](CN)C1)C(=O)C1=Cc2sccc2N=C(N)C1 [TAZ-69]
> 9	CCCN(CCC)C(=O)C1=Cc2sc(COCCN)cc2N=C(N)C1 [TAZ-81]
> 9	CCCN(CCC)C(=O)C1=Cc2sc(CNC(=O)CN)cc2N=C(N)C1 [TAZ-92]

Same assay, conditions: Table 1c, read-out: HEK293 hTLR7 EC50

Compound	EC50 [µM]
CCCN(C[C@H]1CC[C@@H](CN)CC1)C(=O)C1=Cc2sccc2N=C(N)C1 [TAZ-118]	≥ 9
CCCN(Cc1cnc(CN(C)C)c(C(F)(F)F)c1)C(=O)C1=Cc2sc(CCCCCN)cc2N=C(N)C1 [TAZ-127]	≥ 9
CCCN(CCC)C(=O)C1=Cc2scc(C)c2N=C(N)C1 [TAZ-168]	≥ 9
CCCN(OCC)C(=O)C1=Cc2sc(CN3CC4(CCN4Cc4ccccc4)C3)cc2N=C(N)C1 [TAZ-246]	≥ 9
CCCN(Cc1ncco1)C(=O)C1=Cc2sc(CC3CNC3)cc2N=C(N)C1 [TAZ-256]	≥ 9

Now from value to compound:

EC50 [µM]	Compound
≥ 9	CCCN(CCCNC(=O)OC1CCC1)C(=O)C1=Cc2sc(C#CC3CCN(C(=O)OC(C)(C)C)CC3)cc2N=C(N)C1 [TAZ-165]
≥ 9	CCCN(OCC)C(=O)C1=Cc2sc(CC3CCN(C(=O)OC(C)(C)C)CC3)cc2N=C(N)C1 [TAZ-179]
≥ 9	CCCN(OCC)C(=O)C1=Cc2sc(C#CC3CN(C(=O)OC(C)(C)C)C3)cc2N=C(N)C1 [TAZ-187]
≥ 9	CCCN(OCC)C(=O)C1=Cc2sc(C#CC3(O)CN(C(=O)OC(C)(C)C)C3)cc2N=C(N)C1 [TAZ-188]
≥ 9	CCCN(OCC)C(=O)C1=Cc2sc(CN3Cc4ccc(NC(=O)CCN)cc4C3)cc2N=C(N)C1 [TAZ-201]
≥ 9	CCCN(OCC)C(=O)C1=Cc2sc(CN3CC(CN)C3)cc2N=C(N)C1 [TAZ-211]
≥ 9	CCCN(OCC)C(=O)C1=Cc2sc(CN3CCN(c4cccc(C(=O)OC(C)(C)C)c4)CC3)cc2N=C(N)C1 [TAZ-216]
≥ 9	CCCN(OCC)C(=O)C1=Cc2sc(CN3C[C@@H]4CN(C(=O)OC(C)(C)C)C[C@@H]4C3)cc2N=C(N)C1 [TAZ-242]
≥ 9	CCCN(OCC)C(=O)C1=Cc2sc(CN3CCC(N)CC3)cc2N=C(N)C1 [TAZ-243]
≥ 9	CCCN(OCC)C(=O)C1=Cc2sc(CN3C[C@H]4CNC[C@H]4C3)cc2N=C(N)C1 [TAZ-247]
≥ 9	CCCN(OCC)C(=O)C1=Cc2sc(CN3C[C@H]4CN(C(=O)OC(C)(C)C)C[C@@H]4C3)cc2N=C(N)C1 [TAZ-248]
